In patent publication US7528126B2, “Pyrrolobenzodiazepines” (Spirogen Limited, priority 2004, dated 2009):
pIC50: −log10 of the molar value. ≈ marks a conversion by molar mass, not a printed value.

Key:
Streptococcus pyogenes = assay: Antimicrobial susceptibility test (disc diffusion), Streptococcus pyogenes; type: cell-based; conditions: dash = none; for Sensitive %: share of Streptococcus pyogenes strains classed sensitive
Protocol: (§1) Several bacterial colonies were transferred from the agar plates to bijoux containing MHB. The suspension is incubated at 35° C. and subsequently diluted down in sterile saline to match the density of a McFarland standard solution. A sterile cotton swab is then dipped in the bacterial inoculum and pressed against the bijou walls to remove any excess solution. MHA plates are then thoroughly streaked with the swab three times, turning the plate 60° each time. The discs are placed onto the inoculated plate within 15 minutes. The positions of the discs should allow enough space (≈24 mm) around each individual disc in order to measure the diffusion diameter at a later stage. The plates were incubated immediately at 35° C. for 16-18 hours for all organisms excluding VRE, and MRSA, which require a 24-hour incubation. The experiment was valid if there was a confluent bacterial growth, not single colonies, and circular inhibition zones were evident. Clear zones produced around the disc were measured with a ruler and interpreted according to the tables provided by the NCCLS. Bacteria were classified as sensitive, intermediate or resistant.

Streptococcus agalactiae = assay: Antimicrobial susceptibility test (disc diffusion), Streptococcus agalactiae; type: cell-based; conditions: dash = none; for Resistant %: share of Streptococcus agalactiae strains classed resistant; for Sensitive %: share of Streptococcus agalactiae strains classed sensitive
Protocol: as §1

Listeria monocytogenes = assay: Antimicrobial susceptibility test (disc diffusion), Listeria monocytogenes; type: cell-based; conditions: dash = none; for Sensitive %: share of Listeria monocytogenes strains classed sensitive; for Resistant %: share of Listeria monocytogenes strains classed resistant
Protocol: as §1

VRE = assay: Antimicrobial susceptibility test (disc diffusion), VRE; type: cell-based, vancomycin resistant enterococci; conditions: dash = none; for Resistant %: share of VRE strains classed resistant; for Sensitive %: share of VRE strains classed sensitive
Protocol: as §1

[1] = system: K562 human chronic myeloid leukaemia cells; conditions: value quoted for comparison; read-out: IC50 quoted in WO 93/18045; cited from earlier work
MRSA [2] = assay: Antimicrobial susceptibility test (disc diffusion), MRSA; type: cell-based, methicillin resistant Staphylococcus aureus; conditions: for Resistant %: share of MRSA strains classed resistant; for Sensitive %: share of MRSA strains classed sensitive
Protocol: as §1

MRSA [3] = conditions: literature values for comparison; cited from earlier work

## NCC[C@H](O)C(=O)N[C@@H]1C[C@H](N)[C@@H](O[C@H]2O[C@H](CN)[C@@H](O)[C@H](O)[C@H]2O)[C@H](O)[C@H]1O[C@H]1O[C@H](CO)[C@@H](O)[C@H](N)[C@H]1O [Amikacin]
Streptococcus pyogenes; share of Streptococcus pyogenes strains classed resistant
  Resistant %: 100%
Streptococcus agalactiae
  Resistant %: 100%
Listeria monocytogenes
  Sensitive %: 100%

## CCC[C@@H]1C[C@@H](C(=O)N[C@@H]([C@H]2O[C@H](SC)[C@H](O)[C@@H](O)[C@H]2O)[C@H](C)Cl)N(C)C1 [Clindamycin]
VRE
  Resistant %: 85%
  Sensitive %: 15%
Streptococcus pyogenes
  Sensitive %: 100%
Streptococcus agalactiae
  Sensitive %: 100%
Listeria monocytogenes
  Resistant %: 100%

## CC[C@H]1OC(=O)[C@H](C)[C@@H](O[C@H]2C[C@@](C)(OC)[C@@H](O)[C@H](C)O2)[C@H](C)[C@@H](O[C@@H]2O[C@H](C)C[C@H](N(C)C)[C@H]2O)[C@](C)(O)C[C@@H](C)C(=O)[C@H](C)[C@@H](O)[C@]1(C)O [Erythromycin]
VRE
  Resistant %: 90%
  Sensitive %: 10%
Streptococcus pyogenes
  Sensitive %: 100%
Streptococcus agalactiae
  Sensitive %: 100%
Listeria monocytogenes
  Sensitive %: 100%

## CC=C1C[C@H]2C=Nc3cc(OCCCOc4cc5c(cc4OC)C(=O)N4CC(=CC)C[C@H]4C=N5)c(OC)cc3C(=O)N2C1 [Example 6 in WO 93/18045]
[1]
  pIC50: 8.00

## Cc1onc(-c2ccccc2)c1C(=O)N[C@@H]1C(=O)N2[C@@H]1SC(C)(C)[C@@H]2C(=O)O [Oxacillin]
VRE
  Resistant %: 100%
Streptococcus pyogenes
  Sensitive %: 100%
Streptococcus agalactiae
  Sensitive %: 100%
Listeria monocytogenes
  Resistant %: 100%

## CO[C@H]1/C=C/O[C@@]2(C)Oc3c(C)c(O)c4c(O)c(c(/C=N/N5CCN(C)CC5)c(O)c4c3C2=O)NC(=O)/C(C)=C\C=C\[C@H](C)[C@H](O)[C@@H](C)[C@@H](O)[C@@H](C)[C@H](OC(C)=O)[C@@H]1C [Rifampicin]
Streptococcus pyogenes
  Sensitive %: 100%
Streptococcus agalactiae
  Sensitive %: 100%
Listeria monocytogenes
  Sensitive %: 100%

## CN(C)[C@@H]1C(O)=C(C(N)=O)C(=O)[C@@]2(O)C(O)=C3C(=O)c4c(O)cccc4[C@@](C)(O)[C@H]3C[C@@H]12 [Tetracycline]
VRE
  Resistant %: 60%
  Sensitive %: 40%
Streptococcus pyogenes
  Sensitive %: 100%
Streptococcus agalactiae
  Resistant %: 90%
  Sensitive %: 10%
Listeria monocytogenes
  Sensitive %: 100%

## COc1cc(Cc2cnc(N)nc2N)cc(OC)c1OC [Trimethophrim]
MRSA [2]; dash = none
  Resistant %: 32%
  Sensitive %: 68%
VRE
  Resistant %: 75%
  Sensitive %: 25%
Streptococcus pyogenes
  Sensitive %: 100%
Streptococcus agalactiae
  Sensitive %: 100%
Listeria monocytogenes
  Sensitive %: 100%

## CN[C@H](CC(C)C)C(=O)N[C@H]1C(=O)N[C@@H](CC(N)=O)C(=O)N[C@H]2C(=O)N[C@H]3C(=O)N[C@H](C(=O)N[C@H](C(=O)O)c4cc(O)cc(O)c4-c4cc3ccc4O)[C@H](O)c3ccc(c(Cl)c3)Oc3cc2cc(c3O[C@@H]2O[C@H](CO)[C@@H](O)[C@H](O)[C@H]2O[C@H]2C[C@](C)(N)[C@H](O)[C@H](C)O2)Oc2ccc(cc2Cl)[C@H]1O [Vancomycin]
MRSA [2]; in words, summary of Table 4
  susceptibility of all MRSA strains used: completely susceptible
VRE
  Resistant %: 100%
Streptococcus pyogenes
  Sensitive %: 100%
Streptococcus agalactiae
  Sensitive %: 100%
Listeria monocytogenes
  Sensitive %: 100%
MRSA [3]
  MIC in MRSA: about 2 mg/L

## CC(=O)NC[C@H]1CN(c2ccc(N3CCOCC3)c(F)c2)C(=O)O1 [linezolid]
MRSA [3]
  MIC in MRSA: ~1 µg/mL (≈ 2.96 µM)

## Gentamicin
MRSA [2]; share of MRSA strains classed intermediate, dash = none
  Intermediate %: 8%
MRSA [2]; dash = none
  Resistant %: 70%
  Sensitive %: 22%
VRE
  Resistant %: 80%
  Sensitive %: 20%
Streptococcus pyogenes
  Sensitive %: 100%
Streptococcus agalactiae
  Resistant %: 100%
Listeria monocytogenes
  Sensitive %: 100%

## synercid
MRSA [3]
  MIC in MRSA: ~0.5 µg/mL
